Experimental data published in PubChem BioAssay AID330 (DTP/NCI, 2004).
Inconclusive results and toxic doses are left out.

System: P388 leukemia ip, CD2F1 mice, survival T/C
Assay: NCI In Vivo Anticancer Drug Screen. Data for tumor model P388 Leukemia (intraperitoneal) in CD2F1 (CDF1) mice
Details: endpoint: median survival time, higher = longer survival
Method in brief: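 Mice carrying the transplanted tumor received test compound or vehicle. Survival was recorded in each group, and the value is the treated-group measurement divided by that of the vehicle-treated control group.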

[1] = dose: 50.0 mg/kg/injection, schedule: Q01DX005 (ip), vehicle: Klucel (hydroxypropylcellulose) (HPC)
[2] = dose: 100.0 mg/kg/injection, schedule: Q01DX005 (ip), vehicle: Klucel (hydroxypropylcellulose) (HPC)
[3] = dose: 200.0 mg/kg/injection, schedule: Q01DX005 (ip), vehicle: Klucel (hydroxypropylcellulose) (HPC)
[4] = dose: 25.0 mg/kg/injection, schedule: Q04DX003 (ip), vehicle: saline with Tween-80
[5] = dose: 50.0 mg/kg/injection, schedule: Q04DX003 (ip), vehicle: saline with Tween-80

`NC(=S)N/N=C/c1c(-c2ccc(Cl)cc2)nc2n1CCS2` was tested, and the T/C (dose: 100.0 mg/kg/injection, schedule: Q01DX001 (ip), vehicle: Klucel (hydroxypropylcellulose) (HPC)) was 97 % of control, the T/C (dose: 200.0 mg/kg/injection, schedule: Q01DX001 (ip), vehicle: Klucel (hydroxypropylcellulose) (HPC)) was 100 % of control and the T/C (dose: 400.0 mg/kg/injection, schedule: Q01DX001 (ip), vehicle: Klucel (hydroxypropylcellulose) (HPC)) was 97 % of control.
`O=C(NCCCCNC(=O)C12CC3CC(CC(C3)C1)C2)C12CC3CC(CC(C3)C1)C2` was tested, and the T/C [1] was 90 % of control, the T/C [2] was 90 % of control and the T/C [3] was 86 % of control.
`S=P(N1CCCC1)(N1CC1)N1CC1` was tested, and the T/C (dose: 2.2 mg/kg/injection, schedule: Q01DX009 (ip), vehicle: saline) was 111 % of control, the T/C (dose: 3.3 mg/kg/injection, schedule: Q01DX009 (ip), vehicle: saline) was 155 % of control and the T/C (dose: 7.5 mg/kg/injection, schedule: Q01DX009 (ip), vehicle: saline) was 177 % of control. The T/C (dose: 11.0 mg/kg/injection, schedule: Q04DX003 (ip), vehicle: saline with Tween-80) was 104 % of control, the T/C [4] was 200 % of control and the T/C (dose: 37.5 mg/kg/injection, schedule: Q04DX003 (ip), vehicle: saline with Tween-80) was 90 % of control.
`CCCCCCCCCC[N+]1([O-])CCOCC1` was tested, and the T/C (dose: 50.0 mg/kg/injection, schedule: Q01DX009 (ip), vehicle: saline) was 100 % of control and the T/C (dose: 100.0 mg/kg/injection, schedule: Q01DX009 (ip), vehicle: saline) was 89 % of control.
In the case of `O=C(O)c1cc(=O)c2c(OCC(O)COc3cccc4oc(C(=O)O)cc(=O)c34)cccc2o1.[Cu+2]`, the T/C (dose: 12.5 mg/kg/injection, schedule: Q04DX002 (ip), vehicle: Klucel (hydroxypropylcellulose) (HPC)) is reported as 99 % of control, the T/C (dose: 25.0 mg/kg/injection, schedule: Q04DX002 (ip), vehicle: Klucel (hydroxypropylcellulose) (HPC)) is reported as 96 % of control and the T/C (dose: 50.0 mg/kg/injection, schedule: Q04DX002 (ip), vehicle: Klucel (hydroxypropylcellulose) (HPC)) is reported as 95 % of control.
For `CC1OC(=Nc2ccccc2)NC1=O` (configuration not stated), the T/C (dose: 100.0 mg/kg/injection, schedule: Q01DX001 (ip), vehicle: saline with Tween-80) was 97 % of control and the T/C (dose: 200.0 mg/kg/injection, schedule: Q01DX001 (ip), vehicle: saline with Tween-80) was 89 % of control.
`CCCCCCC(=O)CCCCCCCCCCCCC(=O)OC` was tested, and the T/C (dose: 12.5 mg/kg/injection, schedule: Q04DX003 (ip), vehicle: saline with Tween-80) was 100 % of control, the T/C [4] was 100 % of control and the T/C [5] was 100 % of control.
`Cc1ccc(S(=O)(=O)OC(C#N)c2ccccc2)cc1` (configuration not stated) was tested, and the T/C (dose: 50.0 mg/kg/injection, schedule: Q01DX009 (ip), vehicle: Klucel (hydroxypropylcellulose) (HPC)) was 111 % of control, the T/C (dose: 100.0 mg/kg/injection, schedule: Q01DX009 (ip), vehicle: Klucel (hydroxypropylcellulose) (HPC)) was 102 % of control and the T/C (dose: 200.0 mg/kg/injection, schedule: Q01DX009 (ip), vehicle: Klucel (hydroxypropylcellulose) (HPC)) was 100 % of control. The T/C (dose: 400.0 mg/kg/injection, schedule: Q01DX009 (ip), vehicle: Klucel (hydroxypropylcellulose) (HPC)) was 106 % of control.
For `Cc1cc2c3c([nH]c2cc1[N+](=O)[O-])CCCC3=O`, the T/C (dose: 25.0 mg/kg/injection, schedule: Q01DX005 (ip), vehicle: Klucel (hydroxypropylcellulose) (HPC)) was 88 % of control, the T/C [1] was 88 % of control and the T/C [2] was 86 % of control. The T/C [3] was 90 % of control.
For `S=c1nn[nH]n1-c1ccccc1.[Cd]`, the T/C (dose: 3.13 mg/kg/injection, schedule: Q01DX009 (ip), vehicle: saline with Tween-80) was 98 % of control and the T/C (dose: 6.25 mg/kg/injection, schedule: Q01DX009 (ip), vehicle: saline with Tween-80) was 94 % of control.
In the case of `O=C1c2ccccc2C(=O)c2c(O)ccc3cccc1c23`, the T/C (dose: 50.0 mg/kg/injection, schedule: Q01DX005 (ip), vehicle: Klucel + Tween-80) is reported as 92 % of control, the T/C (dose: 100.0 mg/kg/injection, schedule: Q01DX005 (ip), vehicle: Klucel + Tween-80) is reported as 92 % of control and the T/C (dose: 200.0 mg/kg/injection, schedule: Q01DX005 (ip), vehicle: Klucel + Tween-80) is reported as 92 % of control.
`O=C(NCCc1ccccc1)c1ccccc1` was tested, and the T/C [5] was 100 % of control, the T/C (dose: 100.0 mg/kg/injection, schedule: Q04DX003 (ip), vehicle: saline with Tween-80) was 90 % of control and the T/C (dose: 200.0 mg/kg/injection, schedule: Q04DX003 (ip), vehicle: saline with Tween-80) was 95 % of control. The T/C (dose: 400.0 mg/kg/injection, schedule: Q04DX003 (ip), vehicle: saline with Tween-80) was 100 % of control.
For `CC1(O)C2CCCCC2C2CCCCC2C1(C)O` (configuration not stated), the T/C (dose: 50.0 mg/kg/injection, schedule: Q01DX005 (ip), vehicle: saline with Tween-80) was 101 % of control, the T/C (dose: 100.0 mg/kg/injection, schedule: Q01DX005 (ip), vehicle: saline with Tween-80) was 100 % of control and the T/C (dose: 200.0 mg/kg/injection, schedule: Q01DX005 (ip), vehicle: saline with Tween-80) was 103 % of control.
